Measured values from patent US6187800A, “Method for the prevention and treatment of mastitis” (Novartis Animal Health U.S., Inc., priority 1997, dated 2001).

Tests used:
[1] = tested on: Streptococcus thermophilus; assay: Acidification of milk from treated cows by lactic fermenting bacteria; format: cell-based; conditions: 3 doses at 12 h
Description: (§1) Acidification is the first and most important step in the manufacturing processes when milk is fermented. If acidification proceeds normally then it is very likely that all other steps will be normal. Therefore one can investigate the effect of different concentrations of micrococcin P1 on the kinetics of acidification of milk by lactic fermenting bacteria.
(§2) Cows that are free from infection with mastitis pathogens, based on bacteriological culture of milk, are enrolled in these trials. Identical treatments are administered to all 4 quarters of an individual cow. Milk from evening milkings is refrigerated at 4° C. overnight to be tested the following morning. Samples of 500 ml are pasteurized by heating to 80° C. in a waterbath and then cooled to room temperature.
(§3) Lyophylised cultures as used in commercial conditions are obtained from Rudolf Wittwer, CH-5002 Rombach, Aarau, Switzerland. These cultures are reconstituted according to manufacturers recommendations and reactivated by passage three times in sterile skimmed milk. Each passage is incubated for 16 to 18 hours at the optimum temperature for the said bacterial strain.
(§4) The culture obtained after the third passage is diluted to 2% with whole sterile (UHT) milk, aliquotted in 10 ml tubes and frozen at -20° C. for use in experiments.
(§5) The stock cultures prepared above are thawed at 40° C. then incubated overnight at 37° C. and used to inoculate test samples. The test samples are inoculated with 2% by volume of the experimental culture of the bacterial strain under test. The samples are then mixed and incubated for 24 hours at the optimal temperature for the particular bacterial strain under evaluation. The pH is measured each two hours during an eight hour period and again at 24 hours. The rate of acidification of milk containing different concentrations of active micrococcin P1 can then be compared to the negative controls.
(§6) The results given in tables 4 and 5 below have been obtained from cows receiving various amounts of micrococcin P1 on three occasions, at 12 hour intervals.

Lactobacillus bulgaricus = assay: as above; format: cell-based; conditions: 3 doses at 12 h
Description: as §1, §2, §3, §4, §5, §6

[2] = tested on: pathogens causing bovine mastitis; assay: Activity against mastitis pathogens (general statement); format: cell-based
[3] = Hydrophobicity and water solubility
Staphylococcus aureus = assay: Efficacy in subclinical bovine mastitis (experimentally infected quarters, intramammary treatment); format: in vivo, cows (bovine); conditions: n = 9
Description: A dairy herd is maintained to supply candidate cows for enrollment in trials. Cows are bought from local cattle dealers. These cows should have a minimal milk production of 15 l/day. Two milk samples are taken one day apart from all quarters for bacteriological examination. No cows from which mastitis pathogens can be recovered are entered into the tests. Non-infected cows are selected based on non recovery of Staphylococcus aureus from two milk samples taken one day apart from all quarters. Then, 3 quarters are inoculated via the intramammary route using a suspension of Staphylococcus aureus. The 4th quarter serves as a control for the milking hygiene routines. During the two to four weeks after inoculation, milk samples are taken from all quarters, at least 3 times. These samples are cultured, and if Staphylococcus aureus is recovered from at least two of them, the quarter is considered infected.
Treatments are assigned randomly to infected quarters and injected via the intramammary route. Milk samples are taken daily until a minimum of 14 days after the last treatment. A quarter is considered to be cured if milk samples from that quarter become negative (i.e., no Staphylococcus aureus can be recovered) within 7 days after the last treatment and stay negative throughout the following 14 day sampling period.
This experimental model is used to have a fixed framework on which to evaluate treatments. To work with Staphylococcus aureus has the advantage that it is the most difficult Gram positive bacterium to treat and one of the most important bacteria causing bovine mastitis. Therefore, cure rates should be expected to be lower than for other Gram positive bacteria, such as Streptococci and coagulase-negative Staphylococci.
The results presented in Table 2 show the percentage of quarters positive for Staphylococcus aureus (i.e., quarters from which Staphylococcus aureus can be recovered) during and after treatment with 3 doses of either placebo, 2 mg micrococcin P1, or 300 mg ampiclox at 12 hour intervals, or 3 doses with 4 mg micrococcin P1 at 48 hour intervals.

micrococcin P1
pH (acidification of milk) ([1]; 0.1 mg, 0 hours of growth): 6.60 | pH (acidification of milk) ([1]; 0.1 mg, 2 hours of growth): 6.03 | pH (acidification of milk) ([1]; 0.1 mg, 4 hours of growth): 4.47 | pH (acidification of milk) ([1]; 0.1 mg, 6 hours of growth): 4.08 | pH (acidification of milk) ([1]; 0.1 mg, 8 hours of growth): 3.94 | pH (acidification of milk) ([1]; 0.1 mg, 24 hours of growth): 3.52 | pH (acidification of milk) ([1]; 0.5 mg, 0 hours of growth): 6.61 | pH (acidification of milk) ([1]; 0.5 mg, 2 hours of growth): 6.04 | pH (acidification of milk) ([1]; 0.5 mg, 4 hours of growth): 4.50 | pH (acidification of milk) ([1]; 0.5 mg, 6 hours of growth): 4.13 | pH (acidification of milk) ([1]; 0.5 mg, 8 hours of growth): 4.00 | pH (acidification of milk) ([1]; 0.5 mg, 24 hours of growth): 3.51 | pH (acidification of milk) ([1]; 1 mg, 0 hours of growth): 6.67 | pH (acidification of milk) ([1]; 1 mg, 2 hours of growth): 6.20 | pH (acidification of milk) ([1]; 1 mg, 4 hours of growth): 4.53 | pH (acidification of milk) ([1]; 1 mg, 6 hours of growth): 4.11 | pH (acidification of milk) ([1]; 1 mg, 8 hours of growth): 3.94 | pH (acidification of milk) ([1]; 1 mg, 24 hours of growth): 3.48 | pH (acidification of milk) ([1]; 2 mg, 0 hours of growth): 6.72 | pH (acidification of milk) ([1]; 2 mg, 2 hours of growth): 6.33 | pH (acidification of milk) ([1]; 2 mg, 4 hours of growth): 4.74 | pH (acidification of milk) ([1]; 2 mg, 6 hours of growth): 4.25 | pH (acidification of milk) ([1]; 2 mg, 8 hours of growth): 4.06 | pH (acidification of milk) ([1]; 2 mg, 24 hours of growth): 3.57 | pH (acidification of milk) (Lactobacillus bulgaricus; 0.1 mg, 0 hours of growth): 6.48 | pH (acidification of milk) (Lactobacillus bulgaricus; 0.1 mg, 2 hours of growth): 5.73 | pH (acidification of milk) (Lactobacillus bulgaricus; 0.1 mg, 4 hours of growth): 4.29 | pH (acidification of milk) (Lactobacillus bulgaricus; 0.1 mg, 6 hours of growth): 3.89 | pH (acidification of milk) (Lactobacillus bulgaricus; 0.1 mg, 8 hours of growth): 3.72 | pH (acidification of milk) (Lactobacillus bulgaricus; 0.1 mg, 24 hours of growth): 3.51 | pH (acidification of milk) (Lactobacillus bulgaricus; 0.5 mg, 0 hours of growth): 6.53 | pH (acidification of milk) (Lactobacillus bulgaricus; 0.5 mg, 2 hours of growth): 5.36 | pH (acidification of milk) (Lactobacillus bulgaricus; 0.5 mg, 4 hours of growth): 4.21 | pH (acidification of milk) (Lactobacillus bulgaricus; 0.5 mg, 6 hours of growth): 3.85 | pH (acidification of milk) (Lactobacillus bulgaricus; 0.5 mg, 8 hours of growth): 3.72 | pH (acidification of milk) (Lactobacillus bulgaricus; 0.5 mg, 24 hours of growth): 3.47 | pH (acidification of milk) (Lactobacillus bulgaricus; 1 mg, 0 hours of growth): 6.56 | pH (acidification of milk) (Lactobacillus bulgaricus; 1 mg, 2 hours of growth): 5.83 | pH (acidification of milk) (Lactobacillus bulgaricus; 1 mg, 4 hours of growth): 4.34 | pH (acidification of milk) (Lactobacillus bulgaricus; 1 mg, 6 hours of growth): 3.94 | pH (acidification of milk) (Lactobacillus bulgaricus; 1 mg, 8 hours of growth): 3.75 | pH (acidification of milk) (Lactobacillus bulgaricus; 1 mg, 24 hours of growth): 3.50 | pH (acidification of milk) (Lactobacillus bulgaricus; 2 mg, 0 hours of growth): 6.57 | pH (acidification of milk) (Lactobacillus bulgaricus; 2 mg, 2 hours of growth): 5.69 | pH (acidification of milk) (Lactobacillus bulgaricus; 2 mg, 4 hours of growth): 4.34 | pH (acidification of milk) (Lactobacillus bulgaricus; 2 mg, 6 hours of growth): 3.92 | pH (acidification of milk) (Lactobacillus bulgaricus; 2 mg, 8 hours of growth): 3.75 | pH (acidification of milk) (Lactobacillus bulgaricus; 2 mg, 24 hours of growth): 3.49 | activity against pathogens causing bovine mastitis [2]: highly active against pathogens causing bovine mastitis | hydrophobicity [3]: highly hydrophobic | solubility in water [3]: poorly soluble in water | % of quarters positive (Staphylococcus aureus; 3 × 2 mg each 12 hours, day 0 after start of treatment): 100.0% | % of quarters positive (Staphylococcus aureus; 3 × 2 mg each 12 hours, day 1 after start of treatment): 62.5% | % of quarters positive (Staphylococcus aureus; 3 × 2 mg each 12 hours, day 2 after start of treatment): 12.5% | % of quarters positive (Staphylococcus aureus; 3 × 2 mg each 12 hours, day 3 after start of treatment): 50.0% | % of quarters positive (Staphylococcus aureus; 3 × 2 mg each 12 hours, day 4 after start of treatment): 50.0% | % of quarters positive (Staphylococcus aureus; 3 × 2 mg each 12 hours, day 5 after start of treatment): 62.5% | % of quarters positive (Staphylococcus aureus; 3 × 2 mg each 12 hours, day 7 after start of treatment): 62.5% | % of quarters positive (Staphylococcus aureus; 3 × 2 mg each 12 hours, day 8 after start of treatment): 75.0% | % of quarters positive (Staphylococcus aureus; 3 × 2 mg each 12 hours, day 9 after start of treatment): 75.0% | % of quarters positive (Staphylococcus aureus; 3 × 2 mg each 12 hours, day 10 after start of treatment): 75.0% | % of quarters positive (Staphylococcus aureus; 3 × 2 mg each 12 hours, day 11 after start of treatment): 87.5% | % of quarters positive (Staphylococcus aureus; 3 × 2 mg each 12 hours, day 12 after start of treatment): 75.0% | % of quarters positive (Staphylococcus aureus; 3 × 2 mg each 12 hours, day 14 after start of treatment): 87.5% | % of quarters positive (Staphylococcus aureus; 3 × 2 mg each 12 hours, day 15 after start of treatment): 62.5% | % of quarters positive (Staphylococcus aureus; 3 × 2 mg each 12 hours, day 16 after start of treatment): 75.0% | % of quarters positive (Staphylococcus aureus; 3 × 4 mg each 48 hours, day 0 after start of treatment): 100% | % of quarters positive (Staphylococcus aureus; 3 × 4 mg each 48 hours, day 1 after start of treatment): 22% | % of quarters positive (Staphylococcus aureus; 3 × 4 mg each 48 hours, day 2 after start of treatment): 22% | % of quarters positive (Staphylococcus aureus; 3 × 4 mg each 48 hours, day 3 after start of treatment): 11% | % of quarters positive (Staphylococcus aureus; 3 × 4 mg each 48 hours, day 4 after start of treatment): 11% | % of quarters positive (Staphylococcus aureus; 3 × 4 mg each 48 hours, day 5 after start of treatment): 0% | % of quarters positive (Staphylococcus aureus; 3 × 4 mg each 48 hours, day 7 after start of treatment): 0% | % of quarters positive (Staphylococcus aureus; 3 × 4 mg each 48 hours, day 8 after start of treatment): 22% | % of quarters positive (Staphylococcus aureus; 3 × 4 mg each 48 hours, day 9 after start of treatment): 22% | % of quarters positive (Staphylococcus aureus; 3 × 4 mg each 48 hours, day 10 after start of treatment): 22% | % of quarters positive (Staphylococcus aureus; 3 × 4 mg each 48 hours, day 11 after start of treatment): 22% | % of quarters positive (Staphylococcus aureus; 3 × 4 mg each 48 hours, day 12 after start of treatment): 22% | % of quarters positive (Staphylococcus aureus; 3 × 4 mg each 48 hours, day 14 after start of treatment): 44% | % of quarters positive (Staphylococcus aureus; 3 × 4 mg each 48 hours, day 15 after start of treatment): 44% | % of quarters positive (Staphylococcus aureus; 3 × 4 mg each 48 hours, day 16 after start of treatment): 22%
